Key:
human mAChRM1 [1] = biological target: T1, human mAChRM1 (Homo sapiens, UniProt P11229); experiment: mAChR M1 cell-based functional assay (calcium mobilization), agonist activity upon compound addition, Emax relative to acetylcholine maximum; settings: for EC50 / Agonist Activity Human M1 EC50: calcium mobilization upon compound addition; for Emax: relative to the maximum for acetylcholine
T1 construct: host or cells: CHO-K1
T1 sequence (P11229 1-460): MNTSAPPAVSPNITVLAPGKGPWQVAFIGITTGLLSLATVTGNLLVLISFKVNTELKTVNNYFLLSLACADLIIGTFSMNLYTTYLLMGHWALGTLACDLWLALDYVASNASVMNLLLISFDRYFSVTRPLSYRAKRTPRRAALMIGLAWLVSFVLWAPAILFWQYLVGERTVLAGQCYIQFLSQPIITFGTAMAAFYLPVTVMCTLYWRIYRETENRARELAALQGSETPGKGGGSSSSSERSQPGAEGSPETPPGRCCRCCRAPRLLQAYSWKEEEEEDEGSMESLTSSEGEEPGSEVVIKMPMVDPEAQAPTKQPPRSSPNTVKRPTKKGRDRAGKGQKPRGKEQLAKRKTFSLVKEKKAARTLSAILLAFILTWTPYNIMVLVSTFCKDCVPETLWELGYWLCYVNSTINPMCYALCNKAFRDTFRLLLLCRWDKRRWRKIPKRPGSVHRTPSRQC
Description: Lack of agonist activity may be measured as weak or no increase in calcium fluorescence in mAChRM1-transfected CHO-K1 cells in the presence of the compound, compared to the response of equivalent CHO-K1 cells in the absence of the compound. Lack of mAChRM1 agonist activity may be determined as a percent response relative to acetylcholine. For example, a disclosed compound may have less than or equal to 30%, 25%, 20%, 15%, 10%, 5%, or 1% mAChRM1 agonist activity relative to acetylcholine. A disclosed compound may have substantially no mAChRM1 agonist activity. […] The absence of mAChRM1 agonist activity may contribute to the avoidance of cholinergic adverse effect liability.
(§1) Chinese hamster ovary (CHO-K1) cells stably expressing rat (r)M1 were purchased from the American Type Culture Collection and cultured according to their indicated protocol. CHO cells stably expressing human (h)M2, hM3, and hM5 were described previously (Levey, et al., 1991); hM1 and hM4 cDNAs were purchased from Missouri S&T cDNA Resource; rM4 cDNA was provided by T. I. Bonner (National Institutes of Health, Bethesda, MD). rM2 and rM3 were cloned from a rat brain cDNA library and sequence verified. hM1, rM2, rM3, hM4, and rM4 cDNAs were used to stably transfect CHO-K1 cells purchased from the American Type Culture Collection using Lipofectamine 2000. To make stable rM2, hM2, rM3, hM4. and rM4 cell lines for use in calcium mobilization assays, these cells also were stably transfected with a chimeric G-protein (Gqi5) (provided by B. R. Conklin, University of California, San Francisco) using Lipofectamine 2000. rM1, hM1, rM3, hM3, rM5, and hM5 cells were grown in Ham's F-12 medium containing 10% heat-inactivated fetal bovine serum (FBS), 20 mM HEPES, and 50 μg/mL G418 sulfate. rM2-Gqi5, hM2-Gqi5, and hM4-Gqi5 cells were grown in the same medium also containing 500 µg/mL Hygromycin B. Stable rM4-Gqi5 cells were grown in DMEM containing 10% heat-inactivated FBS, 20 mM HEPES, 400 μg/mL G418 sulfate, and 500 μg/mL Hygromycin B.
(§2) For high throughput measurement of agonist-evoked increases in intracellular calcium, CHO-K1 cells stably expressing muscarinic receptors were plated in growth medium lacking G418 and hygromycin at 15,000 cells/[…] in Greiner 384-well black-walled, tissue culture (TC)-treated, clear-bottom plates (VWR). Cells were incubated overnight at 37° C. and 5% CO2. The next day, cells were washed using an ELX 405 (BioTek) with four washes (80 μL) of assay buffer then aspirated to 20 μL. Next, 20 μL of 16 μM Fluo-4/acetoxymethyl ester (Invitrogen, Carlsbad, CA) prepared as a 2.3 mM stock in DMSO and mixed in a 1:1 ratio with 10% (w/v) Pluronic F-127 and diluted in assay buffer was added to the wells and the cell plates were incubated for 50 min at 37° C. and 5% CO2. Dye was removed by washing with the ELX 405 (four 80 μL washes of assay buffer) then aspirated to 20 μL. Compound master plates were formatted in an 11 point CR^c format (1:3 dilutions) in 100% DMSO with a starting concentration of 10 mM using the BRAVO liquid handler (Agilent). Test compound CRCs were then transferred to daughter plates (240 nL) using the Echo acoustic plate reformatter (Labcyte, Sunnyvale, CA) and then diluted into assay buffer ([…]) to a 2× stock using a Thermo Fisher Combi (Thermo Fisher Scientific, Waltham, MA).
Calcium flux was measured using the Functional Drug Screening System (FDSS) 6000 (Hamamatsu Corporation, Tokyo, Japan) as an increase in the fluorescent static ratio. Compounds were applied to cells (20 μL, 2×) using the automated system of the FDSS 6000 at 4 s into the 300 s protocol and the data were collected at 1 Hz. […] Agonist activity was analyzed as a concentration-dependent increase in calcium mobilization upon compound addition. Emax values for agonist activity are expressed relative to the maximum for acetylcholine. Positive allosteric modulator activity was analyzed as a concentration-dependent increase in the EC20 acetylcholine response. […]

human mAChRM1 [2] = biological target: T1, human mAChRM1; experiment: mAChR M1 cell-based functional assay (calcium mobilization), positive allosteric modulator activity: increase in the EC20 acetylcholine response; settings: for Emax: PAM mode; for EC50: read-out: PAM Activity Human M1 EC50
Description: as §1, §2
Calcium flux was measured using the Functional Drug Screening System (FDSS) 6000 (Hamamatsu Corporation, Tokyo, Japan) as an increase in the fluorescent static ratio. Compounds were applied to cells (20 μL, 2×) using the automated system of the FDSS 6000 at 4 s into the 300 s protocol and the data were collected at 1 Hz. […] Agonist activity was analyzed as a concentration-dependent increase in calcium mobilization upon compound addition. Emax values for agonist activity are expressed relative to the maximum for acetylcholine. Positive allosteric modulator activity was analyzed as a concentration-dependent increase in the EC20 acetylcholine response. Antagonist activity was analyzed as a concentration-dependent decrease in the EC80 acetylcholine response. Concentration-response curves were generated using a four-parameter logistical equation in XLfit curve fitting software (IDBS, Bridgewater, NJ) for Excel (Microsoft, Redmond, WA) or Prism (GraphPad Software, Inc., San Diego, CA).
Activity (EC50 and Emax) was determined in the mAChRM1 cell-based functional assay as described above and the data are shown in Table 16. The compound numbers correspond to the compound numbers used in Table 15.

[3] = increase in the EC20 acetylcholine response

Row | Structure (SMILES) | EC50 (human mAChRM1 [1]) | Emax (human mAChRM1 [1]) | Emax (human mAChRM1 [2]) | EC50 (human mAChRM1 [2]; [3]) | Agonist Activity Human M1 EC50 (human mAChRM1 [1]) | PAM Activity Human M1 EC50 (human mAChRM1 [2]; [3])
1 | Cn1cc2c(-c3cc(F)c(CN4Cc5ncccc5C4=O)c(C4CC4)c3)ccc(C(C)(C)O)c2n1 [Compound 3, 6-(2-cyclopropyl-6-fluoro-4-(7-(2-hydroxypropan-2-yl)-2-methyl-2H-indazol-4-yl)benzyl)-6,7-dihydro-5H-pyrrolo[3,4-b]pyridin-5-one] | 5220 nM | 47% | 86% | 45 nM |  | 
2 | [2H]C([2H])([2H])n1cc2c(-c3cc(F)c(CN4Cc5ncccc5C4=O)c(F)c3)ccc(C(C)(C)O)c2n1 [Compound 4, 6-(2,6-difluoro-4-(7-(2-hydroxypropan-2-yl)-2-(methyl-d3)-2H-indazol-4-yl)benzyl)-6,7-dihydro-5H-pyrrolo[3,4-b]pyridin-5-one] | 1910 nM | 49% | 83% | 124 nM |  | 
3 | CC(C)(O)c1ccc(-c2cc(F)c(CN3Cc4ncccc4C3=O)c(F)c2)cc1 [Compound 5, 6-((3,5-difluoro-4′-(2-hydroxypropan-2-yl)-[1,1′-biphenyl]-4-yl)methyl)-6,7-dihydro-5H-pyrrolo[3,4-b]pyridin-5-one] |  |  | 79% | 1460 nM | inactive | 
4 | CC(C)(O)c1ccc(-c2cc(F)c(CN3Cc4ncccc4C3=O)c(F)c2)cn1 [Compound 6, 6-(2,6-difluoro-4-(6-(2-hydroxypropan-2-yl)pyridin-3-yl)benzyl)-6,7-dihydro-5H-pyrrolo[3,4-b]pyridin-5-one] |  |  | 80% | ≥ 10000 nM | inactive | 
5 | CC(C)(O)c1ccc(-c2cc(F)c(CN3Cc4ncccc4C3=O)c(F)c2)cc1F [Compound 7, 6-((3,3′,5-trifluoro-4′-(2-hydroxypropan-2-yl)-[1,1′-biphenyl]-4-yl)methyl)-6,7-dihydro-5H-pyrrolo[3,4-b]pyridin-5-one] |  |  | 71% | 2670 nM | inactive | 
6 | CC(C)(O)c1ccc(-c2cc(F)c(CN3Cc4ncccc4C3=O)c(F)c2)cc1Cl [Compound 8, 6-((3′-chloro-3,5-difluoro-4′-(2-hydroxypropan-2-yl)-[1,1′-biphenyl]-4-yl)methyl)-6,7-dihydro-5H-pyrrolo[3,4-b]pyridin-5-one] |  |  | 69% | 1980 nM | inactive | 
7 | Cc1cc(-c2ccc(C(C)(C)O)cc2)cc(F)c1CN1Cc2ncccc2C1=O [Compound 9, 6-((3-fluoro-4′-(2-hydroxypropan-2-yl)-5-methyl-[1,1′-biphenyl]-4-yl)methyl)-6,7-dihydro-5H-pyrrolo[3,4-b]pyridin-5-one] |  |  | 76% | 1330 nM | inactive | 
8 | CC(C)(O)c1ccc(-c2cc(F)c(CN3Cc4ncccc4C3=O)c(C3CC3)c2)cc1 [Compound 10, 6-((3-cyclopropyl-5-fluoro-4′-(2-hydroxypropan-2-yl)-[1,1′-biphenyl]-4-yl)methyl)-6,7-dihydro-5H-pyrrolo[3,4-b]pyridin-5-one] |  |  | 83% | 813 nM | inactive | 
9 | CC(C)(O)c1ccc(-c2ccc(CN3Cc4ncccc4C3=O)cc2)cc1 [Compound 11, 6-((4′-(2-hydroxypropan-2-yl)-[1,1′-biphenyl]-4-yl)methyl)-6,7-dihydro-5H-pyrrolo[3,4-b]pyridin-5-one] |  |  | 65% | 6400 nM | inactive | 
10 | Cc1cc(-c2ccc(C(C)(C)O)cc2)ccc1CN1Cc2ncccc2C1=O [Compound 12, 6-((4′-(2-hydroxypropan-2-yl)-3-methyl-[1,1′-biphenyl]-4-yl)methyl)-6,7-dihydro-5H-pyrrolo[3,4-b]pyridin-5-one] |  |  | 70% | 5940 nM | inactive | 
11 | CC(C)(O)c1ccc(-c2ccc(CN3Cc4ncccc4C3=O)c(F)c2)cc1 [Compound 13, 6-((3-fluoro-4′-(2-hydroxypropan-2-yl)-[1,1′-biphenyl]-4-yl)methyl)-6,7-dihydro-5H-pyrrolo[3,4-b]pyridin-5-one] |  |  | 72% | 2120 nM | inactive | 
12 | CC(C)COc1cc(-c2ccc(C(C)(C)O)cc2)cc(F)c1CN1Cc2ncccc2C1=O [Compound 14, 6-((3-Fluoro-4′-(2-hydroxypropan-2-yl)-5-isobutoxy-[1,1′-biphenyl]-4-yl)methyl)-6,7-dihydro-5H-pyrrolo[3,4-b]pyridin-5-one] |  |  | 76% | 2320 nM | inactive | 
13 | CC(C)(O)c1cc(-c2cc(F)c(CN3Cc4ncccc4C3=O)c(F)c2)cc2c1OCO2 [Compound 17, 6-(2,6-difluoro-4-(7-(2-hydroxypropan-2-yl)benzo[d][1,3]dioxol-5-yl)benzyl)-6,7-dihydro-5H-pyrrolo[3,4-b]pyridin-5-one] |  |  |  |  | inactive | inactive
14 | Cc1cc(-c2cc3c(c(C(C)(C)O)c2)OCO3)cc(F)c1CN1Cc2ncccc2C1=O [Compound 18, 6-(2-fluoro-4-(7-(2-hydroxypropan-2-yl)benzo[d][1,3]dioxol-5-yl)-6-methylbenzyl)-6,7-dihydro-5H-pyrrolo[3,4-b]pyridin-5-one] |  |  | 49% | 6370 nM | inactive | 
15 | Cn1cc2c(C(C)(C)O)cc(-c3cc(F)c(CN4Cc5ncccc5C4=O)c(F)c3)cc2n1 [Compound 19, 6-(2,6-difluoro-4-(4-(2-hydroxypropan-2-yl)-2-methyl-2H-indazol-6-yl)benzyl)-6,7-dihydro-5H-pyrrolo[3,4-b]pyridin-5-one] |  |  | 50% | ≥ 10000 nM | inactive | 

Reference: patent publication US20260138978A1, “POSITIVE ALLOSTERIC MODULATORS OF THE MUSCARINIC ACETYLCHOLINE RECEPTOR M1” (Vanderbilt University, priority 2022, published 2026)
